The assay has as its system PDC KRAS tumor spheroids with HUVEC/MSC, viability. The experiment in a line: Anticancer human tumor 349418-098-R-PDC patient-derived lung adenocarcinoma cell line growth inhibition [KRAS2]. The note with it: for viability, T/C: stronger effect = lower value. An outline of the steps: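 Combination screen of spheroid viability in tumor-cell co-cultures with endothelial (HUVEC) and mesenchymal stem cell stroma. Each agent was tested in half-log dilutions, topping at clinical Cmax or at 10 microM without a known Cmax.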

[1] abbreviates: curve of first compound, second compound 0.1 µM.
The mark [2] stands for this setting: curve of first compound, second compound 0.316 µM.
The mark [3] stands for this setting: curve of first compound, second compound 1 µM.
[4] abbreviates: curve of first compound, second compound 3.16 µM.
[5] abbreviates: curve of first compound, second compound 10 µM.
The mark [6] stands for this setting: second compound 0.1 µM, first compound 0.0316 µM.
Where [7] appears, read: second compound 0.1 µM, first compound 0.1 µM.
[8] abbreviates: second compound 0.316 µM, first compound 0.0316 µM.
The mark [9] stands for this setting: second compound 0.316 µM, first compound 0.1 µM.
Where [10] appears, read: second compound 1 µM, first compound 0.0316 µM.
[11] abbreviates: second compound 1 µM, first compound 0.1 µM.
Where [12] appears, read: second compound 3.16 µM, first compound 0.0316 µM.
[13] abbreviates: second compound 3.16 µM, first compound 0.1 µM.
[14] abbreviates: second compound 10 µM, first compound 0.0316 µM.
[15] abbreviates: second compound 10 µM, first compound 0.1 µM.
Where [16] appears, read: second compound 0.1 µM, first compound 0.316 µM.
Where [17] appears, read: second compound 0.1 µM, first compound 1 µM.
The mark [18] stands for this setting: second compound 0.1 µM, first compound 3.16 µM.
Where [19] appears, read: second compound 0.1 µM, first compound 10 µM.
Where [20] appears, read: second compound 0.316 µM, first compound 0.316 µM.
The mark [21] stands for this setting: second compound 0.316 µM, first compound 1 µM.
The mark [22] stands for this setting: second compound 0.316 µM, first compound 3.16 µM.
[23] abbreviates: second compound 0.316 µM, first compound 10 µM.
[24] abbreviates: second compound 1 µM, first compound 0.316 µM.
Setting [25] is: second compound 1 µM, first compound 1 µM.
The mark [26] stands for this setting: second compound 1 µM, first compound 3.16 µM.
The mark [27] stands for this setting: second compound 1 µM, first compound 10 µM.
Setting [28] is: second compound 3.16 µM, first compound 0.316 µM.
Setting [29] is: second compound 3.16 µM, first compound 1 µM.
Setting [30] is: second compound 3.16 µM, first compound 3.16 µM.
Setting [31] is: second compound 3.16 µM, first compound 10 µM.
The mark [32] stands for this setting: second compound 10 µM, first compound 0.316 µM.
[33] abbreviates: second compound 10 µM, first compound 1 µM.
Where [34] appears, read: second compound 10 µM, first compound 3.16 µM.
[35] abbreviates: second compound 10 µM, first compound 10 µM.

Where “and” joins values, the source holds several entries; their conditions need not be identical. Equal entries are not always repeated.

The text below walks through data of PubChem BioAssay AID1963866 (Molecular Pharmacology Branch, DTP, NCI, 2024).
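Note: spheroids exposed to compounds for seven days before readout.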

The IC50 is the point on the concentration scale where inhibition reaches its midpoint. Broadly, the viability, T/C is the ratio of treated to control. With `Cn1ncnc1[C@H]1c2n[nH]c(=O)c3cc(F)cc(c23)N[C@@H]1c1ccc(F)cc1` + C=CC(=O)N1CCN(c2nc(=O)n(-c3c(C)ccnc3C(C)C)c3nc(-c4c(O)cccc4F)c(F)cc23)C(C)C1, the IC50 under setting [1] was greater than 100 nM; the IC50 under setting [2] was greater than 100 nM; the IC50 under setting [3] was greater than 100 nM; the concentration for half-maximal inhibition (IC50) under setting [4] was greater than 100 nM; the IC50 under setting [5] was less than 0.316 nM. The viability, T/C reads like this: (second compound 0.1 µM, first compound 0.000316 µM) 101%; (second compound 0.1 µM, first compound 0.001 µM) 95.4%; (second compound 0.1 µM, first compound 0.00316 µM) 94.5%; (second compound 0.1 µM, first compound 0.01 µM) 92.3%; under setting [6], 88.1%; under setting [7], 87%. The viability, T/C is 95.2% (second compound 0.316 µM, first compound 0.000316 µM); 88.4% (second compound 0.316 µM, first compound 0.001 µM); 86.8% (second compound 0.316 µM, first compound 0.00316 µM); 87.6% (second compound 0.316 µM, first compound 0.01 µM); 83% under setting [8]; 75.7% under setting [9]. For the same compound, the viability, T/C runs as follows: (second compound 1 µM, first compound 0.000316 µM) 81.1%; (second compound 1 µM, first compound 0.001 µM) 79.3%; (second compound 1 µM, first compound 0.00316 µM) 80.5%; (second compound 1 µM, first compound 0.01 µM) 73.3%; under setting [10], 64.6%; under setting [11], 64.6%. Further, the viability, T/C by setting is: (second compound 3.16 µM, first compound 0.000316 µM) 65.8%; (second compound 3.16 µM, first compound 0.001 µM) 66.6%; (second compound 3.16 µM, first compound 0.00316 µM) 58.1%; (second compound 3.16 µM, first compound 0.01 µM) 60.9%; under setting [12], 61.1%; under setting [13], 56.3%. In addition, the viability, T/C is 39% (second compound 10 µM, first compound 0.000316 µM); 43.6% (second compound 10 µM, first compound 0.001 µM); 43.9% (second compound 10 µM, first compound 0.00316 µM); 29.1% (second compound 10 µM, first compound 0.01 µM); 34.3% under setting [14]; 30.5% under setting [15].
For the compound `Cn1nccc1Nc1nccc(-c2cc3c(s2)C(C)(C)N(CCN2CCOCC2)C3=O)n1` + C=CC(=O)N1CCN(c2nc(=O)n(-c3c(C)ccnc3C(C)C)c3nc(-c4c(O)cccc4F)c(F)cc23)C(C)C1, the IC50 is, setting by setting: under setting [1], 85.5 nM; under setting [2], 64.3 nM; under setting [3], 67.6 nM; under setting [4], 37.4 nM; under setting [5], less than 31.6 nM. Besides, the viability, T/C by setting is: under setting [6], 75.7%; under setting [7], 46.1%; under setting [16], 23.6%; under setting [17], 13.3%; under setting [18], 10.8%; under setting [19], 7.2%. Further, the viability, T/C was 72.4% under setting [8]; 29.5% under setting [9]; 30.2% under setting [20]; 18.7% under setting [21]; 12.2% under setting [22]; 7.24% under setting [23]. The viability, T/C was 64.9% under setting [10]; 39.1% under setting [11]; 33.6% under setting [24]; 18.3% under setting [25]; 13.3% under setting [26]; 9.7% under setting [27]. Further, the viability, T/C under setting [12] is 53%; the viability, T/C under setting [13] was 34.9%; the viability, T/C under setting [28] is 25.7%; the viability, T/C under setting [29] is 16.5%; the viability, T/C under setting [30] is 9.89%; the viability, T/C under setting [31] was 8.92%. Besides, the viability, T/C by setting is: under setting [14], 32.6%; under setting [15], 19.6%; under setting [32], 16.1%; under setting [33], 13.9%; under setting [34], 9.06%; under setting [35], 6.64%.
Take `CC1OCC2(CCN(c3cnc(Sc4ccnc(N)c4Cl)c(N)n3)CC2)C1N` (configuration not stated): under “compound 0.0316 µM”, the viability, T/C was 102% (2×) and 80.3%. The IC50 was 10000 nM and > 10000 nM (compound alone, run of 07/12/2021); greater than 10000 nM (compound alone, run of 07/19/2021); greater than 10000 nM (compound alone, run of 07/26/2021); greater than 10000 nM (curve of compound).
Consider `Cn1ncnc1[C@H]1c2n[nH]c(=O)c3cc(F)cc(c23)N[C@@H]1c1ccc(F)cc1`, for which the viability, T/C is 104% [middle of 5 runs] (compound 0.000316 µM); 96.9% [middle of 5 runs] (compound 0.001 µM); 96.4% [middle of 5 runs] (compound 0.00316 µM); 94.2% [middle of 5 runs] (compound 0.01 µM); 86.2% [middle of 5 runs] (compound 0.0316 µM); 78.7% [middle of 5 runs] (compound 0.1 µM). Further, the IC50 (curve of compound) was greater than 100 nM.
As to `COC(=O)c1ccc2c(C(=Nc3ccc(N(C)C(=O)CN4CCN(C)CC4)cc3)c3ccccc3)c(O)[nH]c2c1` + C=CC(=O)N1CCN(c2nc(=O)n(-c3c(C)ccnc3C(C)C)c3nc(-c4c(O)cccc4F)c(F)cc23)C(C)C1, the IC50 runs as follows: under setting [1], 157 nM; under setting [2], 226 nM; under setting [3], 242 nM; under setting [4], 106 nM; under setting [5], less than 31.6 nM. The viability, T/C was 88.1% under setting [6]; 49.6% under setting [7]; 47.2% under setting [16]; 26.5% under setting [17]; 14.8% under setting [18]; 15.1% under setting [19]. Besides, the viability, T/C is 94.5% under setting [8]; 63.1% under setting [9]; 47.1% under setting [20]; 27.9% under setting [21]; 17.2% under setting [22]; 15.5% under setting [23]. In addition, the viability, T/C under setting [10] is 107%; the viability, T/C under setting [11] is 73.2%; the viability, T/C under setting [24] was 39.8%; the viability, T/C under setting [25] was 30.4%; the viability, T/C under setting [26] was 18.1%; the viability, T/C under setting [27] is 13.7%. For the same compound, the viability, T/C was 72.4% under setting [12]; 47.9% under setting [13]; 35.7% under setting [28]; 28.4% under setting [29]; 11.6% under setting [30]; 10.9% under setting [31]. For the same compound, the viability, T/C is, setting by setting: under setting [14], 40%; under setting [15], 35.2%; under setting [32], 31.4%; under setting [33], 25.3%; under setting [34], 5.38%; under setting [35], 1.56%.
